Assay results published in PubChem BioAssay (NCI).
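A five-concentration, 48-hour dose response in 96-well plates underlies each endpoint, interpolated linearly between surrounding concentrations. GI50 is the concentration that inhibits growth by half. TGI denotes the concentration required for complete inhibition of growth.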

What was measured:
Assay in all cases: DTP human tumour cell line panel, 48 h
[1] = tested on: PC-3 prostate
[2] = tested on: K-562 leukemia
[3] = tested on: SF-539 CNS
[4] = tested on: SR leukemia
[5] = tested on: EKVX NSCLC
[6] = tested on: SK-OV-3 ovarian
[7] = tested on: MOLT-4 leukemia
[8] = tested on: OVCAR-8 ovarian

CCC1(CC)C(=O)CC[C@@]2(C)C1=CC[C@H]1[C@@H]3CC[C@H](O)[C@@]3(C)CC[C@@H]12
TGI [1]: > 100 µM
TGI [2]: 37.3 µM
TGI [3]: > 100 µM
TGI [4]: 31.8 µM
TGI [5]: > 100 µM
TGI [6]: > 100 µM
TGI [7]: 54.8 µM
TGI [8]: 56.5 µM

Cc1cc2ccccc2n1CC(=O)NCC(C)C
TGI [1]: > 100 µM
TGI [2]: > 100 µM
TGI [3]: > 100 µM
TGI [4]: > 100 µM
TGI [5]: > 100 µM
TGI [6]: > 100 µM
TGI [7]: > 100 µM
TGI [8]: > 100 µM

CN(C)CCOC(=O)COc1ccc(Cl)cc1
TGI [1]: > 100 µM
TGI [2]: > 100 µM
TGI [3]: > 100 µM
TGI [4]: > 100 µM
TGI [5]: > 100 µM
TGI [6]: > 100 µM
TGI [7]: > 100 µM
TGI [8]: > 100 µM

COc1ccc(C2(c3ccc(OC)cc3)OC(=O)c3cccc4cccc2c34)cc1
TGI [1]: 6.47 µM
TGI [2]: > 100 µM
TGI [3]: 9.63 µM
TGI [4]: 44.8 µM
TGI [5]: 29 µM
TGI [6]: > 100 µM
TGI [7]: > 100 µM
TGI [8]: > 100 µM

O=C(O)/C=C(/CC(=O)O)C(=O)O
TGI [1]: 40.2 µM
TGI [2]: 42.6 µM
TGI [3]: 26 µM
TGI [5]: 51.7 µM
TGI [6]: 47.6 µM
TGI [7]: 38.4 µM
TGI [8]: 46.6 µM

Cc1c2c3cc(O)ccc3nc-2n(C)c2ccccc12
TGI [1]: 5.94 µM
TGI [2]: 7.5 µM
TGI [3]: 4.98 µM
TGI [4]: 21.3 µM
TGI [5]: 6.91 µM
TGI [6]: 6.22 µM
TGI [7]: 3.32 µM
TGI [8]: 10.6 µM

CCN(CC)CCO/N=C1\CC[C@H]2[C@@H]3CC=C4C[C@@H](O)CC[C@]4(C)[C@H]3CC[C@]12C
TGI [1]: 50.2 µM
TGI [2]: 30.7 µM
TGI [3]: 27.6 µM
TGI [4]: 26.4 µM
TGI [5]: > 100 µM
TGI [7]: 40.4 µM
TGI [8]: 64.6 µM

CCOC(=O)c1ccc(C(=O)C(C(C)=O)C(=O)OC(C)(C)C)n1C (centres undefined)
TGI [1]: > 100 µM
TGI [2]: > 100 µM
TGI [4]: > 100 µM
TGI [5]: > 100 µM
TGI [6]: > 100 µM
TGI [7]: > 100 µM
TGI [8]: > 100 µM

O=C1c2[nH]cc(CN3CCNCC3)c2C(=O)c2c1c(O)c1ccccc1c2O
GI50 [1]: 1.83 µM
TGI [1]: 4.41 µM
GI50 [2]: 3.42 µM
TGI [2]: > 100 µM
GI50 [3]: 1.85 µM
TGI [3]: 3.31 µM
GI50 [4]: 6.09 µM
TGI [4]: > 100 µM
GI50 [5]: 0.769 µM
TGI [5]: 2.49 µM
GI50 [6]: 5.76 µM
TGI [6]: 27.7 µM
GI50 [7]: 3.08 µM
TGI [7]: > 20 µM

O=C1NC(=S)N/C1=C/c1ccccc1O
TGI [1]: > 100 µM
TGI [3]: > 100 µM
TGI [4]: > 100 µM
TGI [5]: > 100 µM
TGI [6]: > 100 µM
TGI [7]: > 100 µM
TGI [8]: > 100 µM

CC1(C)O[C@@H](CO)[C@H]([C@@]23OC[C@H]4OC(C)(C)OC4[C@@H]2OC(C)(C)O3)O1 (some centres undefined)
TGI [1]: > 100 µM
TGI [2]: > 100 µM
TGI [4]: > 100 µM
TGI [5]: > 100 µM
TGI [6]: > 100 µM
TGI [7]: > 100 µM
TGI [8]: > 100 µM

CC1(C)COC(c2cccc(C3=NC(C)(C)CO3)c2Br)=N1
TGI [1]: > 100 µM
TGI [2]: > 100 µM
TGI [3]: > 100 µM
TGI [4]: > 100 µM
TGI [5]: > 100 µM
TGI [7]: > 100 µM
TGI [8]: > 100 µM

C#CCNC(Cc1cnc[nH]1)C(=O)O (centres undefined)
TGI [1]: > 100 µM
TGI [2]: > 100 µM
TGI [3]: > 100 µM
TGI [4]: > 100 µM
TGI [5]: > 100 µM
TGI [6]: > 100 µM
TGI [7]: > 100 µM
TGI [8]: > 100 µM

S=C(N/N=C\C=N/NC(=S)N1CCCCCC1)N1CCCCCC1
TGI [1]: > 100 µM
TGI [2]: > 100 µM
TGI [3]: > 100 µM
TGI [5]: > 100 µM
TGI [6]: > 100 µM
TGI [7]: > 100 µM
TGI [8]: > 100 µM

Nc1nc(Cl)cc(N=Nc2ccccc2)n1
TGI [2]: > 100 µM
TGI [3]: > 100 µM
TGI [4]: > 100 µM
TGI [5]: > 100 µM
TGI [6]: > 100 µM
TGI [7]: > 100 µM
TGI [8]: 97.6 µM

CC(=O)O[C@H]1C#C/C=C\C#CC[C@@H]2C(=O)N(C(=O)OC(C)(C)C)[C@@H]12
TGI [1]: > 100 µM
TGI [2]: > 100 µM
TGI [3]: 18.5 µM
TGI [4]: > 100 µM
TGI [5]: > 100 µM
TGI [6]: > 100 µM
TGI [7]: > 53.5 µM
TGI [8]: > 82.3 µM

O=C1/C(=C/c2ccccc2)CCc2ccc(Cl)nc21
TGI [1]: 29.9 µM
TGI [2]: 6.78 µM
TGI [3]: 15.4 µM
TGI [4]: 9.01 µM
TGI [5]: 38.3 µM
TGI [6]: 73 µM
TGI [7]: 5.93 µM
TGI [8]: > 100 µM

COc1ccc(C(O)c2ccc3c(c2)OCO3)cc1 (centres undefined)
TGI [1]: > 100 µM
TGI [2]: > 100 µM
TGI [3]: > 100 µM
TGI [4]: > 100 µM
TGI [5]: > 100 µM
TGI [6]: > 100 µM
TGI [7]: > 100 µM
TGI [8]: > 100 µM

N#CC1=C(N)C(C#N)(C#N)C(c2ccc(F)cc2)C=C1C1CC1 (centres undefined)
TGI [1]: 21.8 µM
TGI [2]: 41.9 µM
TGI [3]: 2.42 µM
TGI [4]: 12.9 µM
TGI [5]: 75.4 µM
TGI [6]: 30 µM
TGI [7]: 25.5 µM
TGI [8]: 21.5 µM

OC1CCCC1C(O)(C(F)(F)F)C(F)(F)F (centres undefined)
TGI [1]: > 100 µM
TGI [2]: > 100 µM
TGI [3]: > 100 µM
TGI [4]: > 100 µM
TGI [5]: > 100 µM
TGI [6]: > 100 µM
TGI [7]: > 100 µM
TGI [8]: > 100 µM

Cn1c(=O)c2c(-c3ccccc3)onc2n(C)c1=O
TGI [1]: > 100 µM
TGI [2]: > 100 µM
TGI [3]: > 100 µM
TGI [4]: 75.2 µM
TGI [5]: > 100 µM
TGI [6]: > 100 µM
TGI [7]: 81.5 µM
TGI [8]: > 100 µM

CC(=O)/C=C/C=C(\C)CC/C=C(\C)CC(C)C
TGI [1]: > 100 µM
TGI [2]: 56.8 µM
TGI [3]: 46.8 µM
TGI [4]: 39.1 µM
TGI [5]: > 100 µM
TGI [6]: > 100 µM
TGI [7]: 41.9 µM
TGI [8]: 65.8 µM

CS(=O)(=O)OCCN1CCC2(CC1)SSC1(CCN(CCOS(C)(=O)=O)CC1)S2
TGI [1]: > 100 µM
TGI [2]: > 100 µM
TGI [3]: > 100 µM
TGI [4]: 65.9 µM
TGI [6]: > 100 µM
TGI [7]: > 100 µM
TGI [8]: > 100 µM

Cc1ccc(S(=O)(=O)n2cncc2CO)cc1
TGI [1]: > 100 µM
TGI [2]: > 100 µM
TGI [3]: > 100 µM
TGI [4]: > 100 µM
TGI [5]: > 100 µM
TGI [6]: > 100 µM
TGI [7]: > 100 µM
TGI [8]: > 100 µM
